Experimental data as given in paper PMC3363326 (ACS medicinal chemistry letters, 2012).
In brackets after ≈: the same amount, converted by molar mass. Blank lines part the entries; values can stand above or below the molecule they belong to.

Experiments:
S. aureus CrtM [1] = biological target: T1, S. aureus CrtM (Staphylococcus aureus, UniProt A9JQL9); settings: read-out: CrtM IC50; cited from earlier work
[2] = test system: staphyloxanthin pigment formation; settings: read-out: carotenoid pigment formation in cells IC50; cited from earlier work
S. aureus CrtM [3] = biological target: T1, S. aureus CrtM; experiment: S. aureus CrtM; format: biochemical
S. aureus UPPS = biological target: T2, S. aureus UPPS (Staphylococcus aureus, UniProt P60477); experiment: S. aureus UPPS inhibition; format: biochemical
T2 sequence (P60477 1-256): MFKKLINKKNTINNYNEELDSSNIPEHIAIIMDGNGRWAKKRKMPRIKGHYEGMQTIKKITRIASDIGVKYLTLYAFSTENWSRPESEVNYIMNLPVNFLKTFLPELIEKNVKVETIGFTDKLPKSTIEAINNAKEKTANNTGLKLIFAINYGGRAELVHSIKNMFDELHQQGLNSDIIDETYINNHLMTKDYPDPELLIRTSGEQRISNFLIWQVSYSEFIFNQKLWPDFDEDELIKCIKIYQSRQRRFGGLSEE

E. coli = E. coli cell growth inhibition; format: cell-based; settings: DH5α, K12
[4] = test system: USA300 (MRSA) strain of S. aureus; experiment: S. aureus cell growth inhibition; format: cell-based; settings: Staphylococcus aureus, MRSA|USA300, read-out: MIC90 against S. aureus
MCF-7 = experiment: Toxicity against human cell line; format: cell-based
bacteria = settings: background statement, no reference given; cited from earlier work
FPPS = settings: background statement, no reference given; cited from earlier work

Compound: O=P(O)(O)C(CCCc1cccc(Oc2ccccc2)c1)S(=O)(=O)O (stereo not shown) [Compound 3]
IC50 (S. aureus CrtM [1]): ~7900 nM | IC50 [2]: ~110 nM

Compound: CCCCCCCCCCOc1cccc(Cn2ccc(O)c(C(=O)O)c2=O)c1 [Compound 42]
CrtM inhibition, in words (S. aureus CrtM [3]): no activity

Ki (S. aureus UPPS): 230 nM
Compound: CCCCCCCCCCOc1cccc(C(=O)/C=C(\O)C(=O)O)c1 [Compound 44]

Ki (S. aureus UPPS): 670 nM | MIC90 [4]: 0.25 to 0.5 µg/mL (≈ 0.78 to 1.56 µM)
Compound: CCCCCCCCOc1ccc(C(=O)/C=C(\O)C(=O)O)cc1 [Compound 45]
activity against E. coli (E. coli): very little activity | activity against human cell lines (MCF-7): very little activity

Compound: O=P(O)(O)C(O)(Cn1ccnc1)P(=O)(O)O [zoledronate]
antibacterial activity (bacteria): little antibacterial activity | FPPS inhibition potency (FPPS): potent, low nM inhibitors
